Test results published in patent US9546175B2, “Organic compounds” (Intra-Cellular Therapies, Inc., priority 2014, dated 2017).

Assay: Pharmacokinetic analysis in mice, plasma and brain levels by LC-MS/MS
Assay type: in vivo
Settings: mouse, male C57BL/6 mice, 10 mg/kg oral (PO), 0.25-2 h, read-out: B/P ratio (Brain AUC(0-2h)/Plasma AUC(0-2h))
Experimental: Animals: Male, C57BL/6 mice (Jackson Labs, 25-30 g in body weight) are provided by Jackson Laboratories. Up to five mice are housed per cage and are maintained under a 12 hour light/dark cycle with access to food and water ad libitum. All procedures for the handling and use of animals follow the guidelines of the Institutional Animal Care and Use Committee (IACUC) of Columbia University, in accordance with NIH guidelines. Eight week-old mice (N=3/dose level or treatment group) are used in the experiments.
Experimental Treatment: Compounds: Selected Compounds of the Invention are evaluated in the present study. […]
Compound Preparation: Powdered stocks of the test compound(s) are measured and dissolved in 3% 1N HCl, 5% Labrasol and 92% of 5% TPGS in 0.05M Citrate buffer (CB, pH 4.0). […]
Treatment of Animals: Mice (N=3 mice/dose/time point) receive a 10 mg/kg oral (PO) dose of the test compound(s) at time 0. […] Plasma and brain tissue samples are processed and analyzed by the analytical group using LC-MS/MS methods, as described below. […]
Each tube is vortexed, then centrifuged for 20 min at 15000 rpm using a Tomy benchtop centrifuge at 4° C., Standard is an internal standard used for LC-MS/MS quantitation. […]
Each compound is detected and quantified using Multiple Reaction Monitoring (MRM) of positive electrospray mode with a Waters QuattroMicro™ mass spectrometry system. […]

Kp	Structure (SMILES)
≤ 0.05	CC(C)Cn1c(=O)n(C)c(=O)c2c(Nc3ccccc3)n(Cc3ccc(S(N)(=O)=O)cc3)nc21 [Example 1, 4-((7-Isobutyl-5-methyl-4,6-dioxo-3-(phenylamino)-4,5,6,7-tetrahydropyrazolo[3,4-d]pyrimidin-2-yl)methyl)benzenesulfonamide]
≤ 0.05	CC(C)Cn1c(=O)n(C)c(=O)c2c(Nc3ccccc3)n(Cc3ccc(C(=O)O)cc3)nc21 [Example 2, 4-((7-isobutyl-5-methyl-4,6-dioxo-3-(phenylamino)-4,5,6,7-tetrahydropyrazolo[3,4-d]pyrimidin-2-yl)methyl)benzoic acid]
